Assay results published in ChEMBL document CHEMBL1909046, “DrugMatrix in vitro pharmacology data”.

Biological target: T1, Caspase-1 (Homo sapiens, UniProt P29466);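 note: Caspase-1 enzyme inhibition assay with a peptide substrate; in other assays of this panel Not Active means under 50% inhibition at 10 µM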
T1 sequence (P29466 whole entry): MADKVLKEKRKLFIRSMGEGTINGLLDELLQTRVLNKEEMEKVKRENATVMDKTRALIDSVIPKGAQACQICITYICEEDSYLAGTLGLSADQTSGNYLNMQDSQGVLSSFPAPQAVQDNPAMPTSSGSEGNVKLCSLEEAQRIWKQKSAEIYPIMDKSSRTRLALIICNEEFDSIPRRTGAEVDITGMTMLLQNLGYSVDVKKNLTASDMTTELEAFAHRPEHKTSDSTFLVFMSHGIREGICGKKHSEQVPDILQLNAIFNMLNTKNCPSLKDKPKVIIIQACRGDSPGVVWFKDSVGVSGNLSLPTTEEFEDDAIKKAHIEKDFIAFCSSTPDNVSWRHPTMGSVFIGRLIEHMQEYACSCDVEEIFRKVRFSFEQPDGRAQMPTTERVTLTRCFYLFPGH
Assay: not given
Design: species or system Escherichia coli
Conditions: not given

Row | Structure (SMILES) | IC50
1 | Nc1nc(=O)[nH]cc1F [FLUCYTOSINE] | Not Active
2 | CNC(=O)Oc1ccc2c(c1)[C@]1(C)CCN(C)[C@@H]1N2C [PHYSOSTIGMINE] | Not Active
3 | Nc1nc2c(ncn2COC(CO)CO)c(=O)[nH]1 [GANCICLOVIR] | Not Active

Biological target: T2, D(4) dopamine receptor (Homo sapiens, UniProt P21917)
T2 sequence (P21917 whole entry): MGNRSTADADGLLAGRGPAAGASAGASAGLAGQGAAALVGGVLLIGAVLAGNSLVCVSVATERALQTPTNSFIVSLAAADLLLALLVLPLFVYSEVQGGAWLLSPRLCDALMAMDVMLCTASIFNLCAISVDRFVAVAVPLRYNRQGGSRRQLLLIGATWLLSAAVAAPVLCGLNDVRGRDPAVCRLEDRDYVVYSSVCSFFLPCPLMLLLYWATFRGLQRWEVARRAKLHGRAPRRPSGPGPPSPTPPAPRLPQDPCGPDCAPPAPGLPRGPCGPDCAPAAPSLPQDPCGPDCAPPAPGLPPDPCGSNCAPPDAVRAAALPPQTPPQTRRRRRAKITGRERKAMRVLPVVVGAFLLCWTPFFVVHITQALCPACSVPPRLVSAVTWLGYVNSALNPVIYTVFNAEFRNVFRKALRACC
Assay: DRUGMATRIX: Dopamine D4.2 radioligand binding (ligand: [3H] Spiperone)
Assay type: cell membranes, CHO-K1, Membrane
Conditions: cho-k1; Not Active = under 50% inhibition at 10 µM

Row | Structure (SMILES) | IC50
4 | Nc1nc(=O)[nH]cc1F [FLUCYTOSINE] | Not Active
5 | CNC(=O)Oc1ccc2c(c1)[C@]1(C)CCN(C)[C@@H]1N2C [PHYSOSTIGMINE] | Not Active
6 | Nc1nc2c(ncn2COC(CO)CO)c(=O)[nH]1 [GANCICLOVIR] | Not Active

Tested on: not listed separately
Assay: DRUGMATRIX: beta-Lactamase enzyme inhibition (substrate: Nitrocefin)
Design: species or system Bacillus cereus
Conditions: Not Active = under 50% inhibition at 10 µM

Row | Structure (SMILES) | IC50 | Ki
7 | Nc1nc(=O)[nH]cc1F [FLUCYTOSINE] | Not Active | Not Active
8 | CNC(=O)Oc1ccc2c(c1)[C@]1(C)CCN(C)[C@@H]1N2C [PHYSOSTIGMINE] | Not Active | Not Active
9 | Nc1nc2c(ncn2COC(CO)CO)c(=O)[nH]1 [GANCICLOVIR] | Not Active | Not Active

Biological target: Epidermal growth factor receptor (Homo sapiens, UniProt P00533)
Sequence (P00533 whole entry): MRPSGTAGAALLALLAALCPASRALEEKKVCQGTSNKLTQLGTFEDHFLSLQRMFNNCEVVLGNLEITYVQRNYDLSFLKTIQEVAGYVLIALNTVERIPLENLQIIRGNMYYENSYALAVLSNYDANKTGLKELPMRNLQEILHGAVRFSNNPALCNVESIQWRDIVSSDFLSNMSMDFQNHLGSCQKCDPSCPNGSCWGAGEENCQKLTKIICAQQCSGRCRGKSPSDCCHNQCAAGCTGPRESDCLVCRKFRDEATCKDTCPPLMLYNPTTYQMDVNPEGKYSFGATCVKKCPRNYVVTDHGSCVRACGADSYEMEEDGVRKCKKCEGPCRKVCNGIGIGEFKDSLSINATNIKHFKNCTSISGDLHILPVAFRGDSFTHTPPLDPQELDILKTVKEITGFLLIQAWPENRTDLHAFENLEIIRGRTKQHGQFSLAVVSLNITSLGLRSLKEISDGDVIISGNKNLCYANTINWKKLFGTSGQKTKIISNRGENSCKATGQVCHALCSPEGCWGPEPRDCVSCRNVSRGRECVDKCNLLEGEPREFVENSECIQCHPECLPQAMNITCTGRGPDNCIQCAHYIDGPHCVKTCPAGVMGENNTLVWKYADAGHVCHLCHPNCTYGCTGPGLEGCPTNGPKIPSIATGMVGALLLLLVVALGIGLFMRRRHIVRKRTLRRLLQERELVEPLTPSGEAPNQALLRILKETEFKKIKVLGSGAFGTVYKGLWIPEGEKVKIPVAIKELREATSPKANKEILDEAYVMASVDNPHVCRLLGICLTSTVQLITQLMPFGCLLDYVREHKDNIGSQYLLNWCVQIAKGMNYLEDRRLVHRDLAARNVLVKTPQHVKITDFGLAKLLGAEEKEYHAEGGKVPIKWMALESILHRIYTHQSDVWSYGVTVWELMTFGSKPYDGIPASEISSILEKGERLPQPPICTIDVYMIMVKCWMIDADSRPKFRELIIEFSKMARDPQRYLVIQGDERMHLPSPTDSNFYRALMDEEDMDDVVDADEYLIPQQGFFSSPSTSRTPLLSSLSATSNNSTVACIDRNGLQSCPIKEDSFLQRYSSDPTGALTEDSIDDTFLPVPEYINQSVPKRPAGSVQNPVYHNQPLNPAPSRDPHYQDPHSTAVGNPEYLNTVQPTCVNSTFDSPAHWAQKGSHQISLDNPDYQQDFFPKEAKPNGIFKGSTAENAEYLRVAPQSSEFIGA
Assay: DRUGMATRIX: Protein Tyrosine Kinase, EGF Receptor enzyme inhibition (substrate: Poly(Glu:Tyr))
Assay type: cell-based, Insect cells
Conditions: insect cells; Not Active = under 50% inhibition at 10 µM

Row | Structure (SMILES) | IC50
10 | Nc1nc(=O)[nH]cc1F [FLUCYTOSINE] | Not Active
11 | CNC(=O)Oc1ccc2c(c1)[C@]1(C)CCN(C)[C@@H]1N2C [PHYSOSTIGMINE] | Not Active
12 | Nc1nc2c(ncn2COC(CO)CO)c(=O)[nH]1 [GANCICLOVIR] | Not Active

Tested on: not listed separately
Assay: DRUGMATRIX: Leukotriene, BLT (LTB4) radioligand binding (ligand: [3H]LTB4)
Assay type: cell membranes, Membrane
Conditions: u-937; Not Active = under 50% inhibition at 10 µM

Row | Structure (SMILES) | IC50 | Ki
13 | Nc1nc(=O)[nH]cc1F [FLUCYTOSINE] | Not Active | Not Active
14 | CNC(=O)Oc1ccc2c(c1)[C@]1(C)CCN(C)[C@@H]1N2C [PHYSOSTIGMINE] | Not Active | Not Active
15 | Nc1nc2c(ncn2COC(CO)CO)c(=O)[nH]1 [GANCICLOVIR] | Not Active | Not Active

Biological target: 5-hydroxytryptamine receptor 1B (Rattus norvegicus, UniProt P28564); note: in other assays of this panel Not Active means under 50% inhibition at 10 µM
Sequence (P28564 whole entry): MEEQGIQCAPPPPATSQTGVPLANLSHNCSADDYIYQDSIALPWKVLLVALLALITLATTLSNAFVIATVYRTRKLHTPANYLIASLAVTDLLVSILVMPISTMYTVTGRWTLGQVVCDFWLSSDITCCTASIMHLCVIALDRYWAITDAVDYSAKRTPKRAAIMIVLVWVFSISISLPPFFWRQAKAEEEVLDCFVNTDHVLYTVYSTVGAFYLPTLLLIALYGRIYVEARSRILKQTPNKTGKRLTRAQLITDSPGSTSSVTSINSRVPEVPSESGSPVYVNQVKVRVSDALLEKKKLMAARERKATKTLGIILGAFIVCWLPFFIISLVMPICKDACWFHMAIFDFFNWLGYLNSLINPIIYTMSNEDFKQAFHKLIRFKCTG
Assay: not given
Assay type: cell membranes, Wistar, Cerebral cortex, Membrane
Conditions: not given

Row | Structure (SMILES) | IC50
16 | Nc1nc(=O)[nH]cc1F [FLUCYTOSINE] | Not Active
17 | CNC(=O)Oc1ccc2c(c1)[C@]1(C)CCN(C)[C@@H]1N2C [PHYSOSTIGMINE] | Not Active
18 | Nc1nc2c(ncn2COC(CO)CO)c(=O)[nH]1 [GANCICLOVIR] | Not Active

Biological target: T3, 5-hydroxytryptamine receptor 2C (Homo sapiens, UniProt P28335)
T3 sequence (P28335 whole entry): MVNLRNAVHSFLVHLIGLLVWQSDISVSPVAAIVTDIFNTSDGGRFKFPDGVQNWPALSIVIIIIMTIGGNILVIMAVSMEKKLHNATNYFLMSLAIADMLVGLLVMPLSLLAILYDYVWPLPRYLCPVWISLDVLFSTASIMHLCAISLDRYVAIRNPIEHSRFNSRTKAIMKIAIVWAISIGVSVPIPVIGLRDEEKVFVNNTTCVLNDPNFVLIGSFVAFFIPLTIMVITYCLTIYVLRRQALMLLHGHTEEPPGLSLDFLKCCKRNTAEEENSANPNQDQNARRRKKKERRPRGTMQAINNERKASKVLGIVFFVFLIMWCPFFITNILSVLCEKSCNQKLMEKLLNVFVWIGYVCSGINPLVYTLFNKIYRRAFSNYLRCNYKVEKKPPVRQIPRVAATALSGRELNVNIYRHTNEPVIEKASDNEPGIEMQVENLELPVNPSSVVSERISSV
Assay: DRUGMATRIX: Serotonin (5-Hydroxytryptamine) 5-HT2C radioligand binding (ligand: [3H] Mesulergine)
Assay type: cell membranes, CHO-K1, Membrane
Conditions: cho-k1; Not Active = under 50% inhibition at 10 µM

Row | Structure (SMILES) | IC50
19 | Nc1nc(=O)[nH]cc1F [FLUCYTOSINE] | Not Active
20 | CNC(=O)Oc1ccc2c(c1)[C@]1(C)CCN(C)[C@@H]1N2C [PHYSOSTIGMINE] | Not Active
21 | Nc1nc2c(ncn2COC(CO)CO)c(=O)[nH]1 [GANCICLOVIR] | Not Active

Biological target: Beta-1 adrenergic receptor (Homo sapiens, UniProt P08588)
Sequence (P08588 whole entry): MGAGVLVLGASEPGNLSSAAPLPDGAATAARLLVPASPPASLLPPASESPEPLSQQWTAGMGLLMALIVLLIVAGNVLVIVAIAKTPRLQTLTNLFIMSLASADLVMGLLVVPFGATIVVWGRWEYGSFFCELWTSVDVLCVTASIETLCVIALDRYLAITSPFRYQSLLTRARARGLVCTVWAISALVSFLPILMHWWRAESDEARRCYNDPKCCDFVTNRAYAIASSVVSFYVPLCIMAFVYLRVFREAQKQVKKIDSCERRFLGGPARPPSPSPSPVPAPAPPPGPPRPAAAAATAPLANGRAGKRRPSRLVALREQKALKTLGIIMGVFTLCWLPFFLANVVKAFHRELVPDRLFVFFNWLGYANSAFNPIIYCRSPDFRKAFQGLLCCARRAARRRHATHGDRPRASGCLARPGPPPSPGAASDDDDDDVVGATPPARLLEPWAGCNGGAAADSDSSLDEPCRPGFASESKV
Assay: DRUGMATRIX: Adrenergic beta1 radioligand binding (ligand: [125I] Cyanopindolol)
Assay type: cell membranes, CHO-K1, Membrane
Conditions: cho-k1; Not Active = under 50% inhibition at 10 µM

Row | Structure (SMILES) | IC50
22 | Nc1nc(=O)[nH]cc1F [FLUCYTOSINE] | Not Active
23 | CNC(=O)Oc1ccc2c(c1)[C@]1(C)CCN(C)[C@@H]1N2C [PHYSOSTIGMINE] | Not Active
24 | Nc1nc2c(ncn2COC(CO)CO)c(=O)[nH]1 [GANCICLOVIR] | Not Active

Biological target: T4, Cathepsin G (Homo sapiens, UniProt P08311);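 note: inhibition of Cathepsin G enzyme activity, tested on an AMC-conjugated peptide substrate; in other assays of this panel Not Active means under 50% inhibition at 10 µM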
T4 sequence (P08311 whole entry): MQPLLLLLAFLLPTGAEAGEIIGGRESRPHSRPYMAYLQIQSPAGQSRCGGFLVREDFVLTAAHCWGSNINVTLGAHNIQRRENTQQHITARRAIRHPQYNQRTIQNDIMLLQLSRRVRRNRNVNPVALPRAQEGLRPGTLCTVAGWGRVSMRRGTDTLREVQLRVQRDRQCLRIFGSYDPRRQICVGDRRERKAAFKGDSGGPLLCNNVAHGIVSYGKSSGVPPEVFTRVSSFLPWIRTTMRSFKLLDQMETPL
Assay: not given
Assay type: tissue-based
Conditions: neutrophil

Row | Structure (SMILES) | IC50
25 | Nc1nc(=O)[nH]cc1F [FLUCYTOSINE] | Not Active
26 | CNC(=O)Oc1ccc2c(c1)[C@]1(C)CCN(C)[C@@H]1N2C [PHYSOSTIGMINE] | Not Active
27 | Nc1nc2c(ncn2COC(CO)CO)c(=O)[nH]1 [GANCICLOVIR] | Not Active

Tested on: not listed separately
Assay: DRUGMATRIX: Sigma2 radioligand binding (ligand: [3H] Ifenprodil)
Assay type: cell membranes, Rattus norvegicus, Wistar, Brain, Membrane
Conditions: Not Active = under 50% inhibition at 10 µM

Row | Structure (SMILES) | IC50 | Ki
28 | Nc1nc(=O)[nH]cc1F [FLUCYTOSINE] | Not Active | Not Active
29 | CNC(=O)Oc1ccc2c(c1)[C@]1(C)CCN(C)[C@@H]1N2C [PHYSOSTIGMINE] | Not Active | Not Active
30 | Nc1nc2c(ncn2COC(CO)CO)c(=O)[nH]1 [GANCICLOVIR] | Not Active | Not Active

Tested on: not listed separately
Assay: DRUGMATRIX: Purinergic P2X radioligand binding (ligand: [3H] alpha, beta-Methylene-ATP)
Assay type: cell membranes, Oryctolagus cuniculus, New Zealand albino, Urinary bladder, Membrane
Conditions: Not Active = under 50% inhibition at 10 µM

Row | Structure (SMILES) | IC50 | Ki
31 | Nc1nc(=O)[nH]cc1F [FLUCYTOSINE] | Not Active | Not Active
32 | CNC(=O)Oc1ccc2c(c1)[C@]1(C)CCN(C)[C@@H]1N2C [PHYSOSTIGMINE] | Not Active | Not Active
33 | Nc1nc2c(ncn2COC(CO)CO)c(=O)[nH]1 [GANCICLOVIR] | Not Active | Not Active

Biological target: T5, Cysteinyl leukotriene receptor 1 (Homo sapiens, UniProt Q9Y271); note: in other assays of this panel Not Active means under 50% inhibition at 10 µM
T5 sequence (Q9Y271 whole entry): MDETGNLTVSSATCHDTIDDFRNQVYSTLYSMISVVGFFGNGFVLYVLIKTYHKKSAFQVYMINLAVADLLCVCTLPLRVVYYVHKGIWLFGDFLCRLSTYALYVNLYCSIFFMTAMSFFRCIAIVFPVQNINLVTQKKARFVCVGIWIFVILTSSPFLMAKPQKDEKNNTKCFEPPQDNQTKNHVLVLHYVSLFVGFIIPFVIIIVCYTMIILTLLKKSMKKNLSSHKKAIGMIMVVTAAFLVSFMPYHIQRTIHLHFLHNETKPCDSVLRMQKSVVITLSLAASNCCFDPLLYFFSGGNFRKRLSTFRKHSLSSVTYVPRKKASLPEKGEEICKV
Assay: not given
Assay type: cell membranes, CHO-K1, Membrane
Conditions: cho-k1

Row | Structure (SMILES) | IC50
34 | Nc1nc(=O)[nH]cc1F [FLUCYTOSINE] | Not Active
35 | CNC(=O)Oc1ccc2c(c1)[C@]1(C)CCN(C)[C@@H]1N2C [PHYSOSTIGMINE] | Not Active
36 | Nc1nc2c(ncn2COC(CO)CO)c(=O)[nH]1 [GANCICLOVIR] | Not Active

Biological target: Melanocortin receptor 4 (Homo sapiens, UniProt P32245); note: in other assays of this panel Not Active means under 50% inhibition at 10 µM
Sequence (P32245 whole entry): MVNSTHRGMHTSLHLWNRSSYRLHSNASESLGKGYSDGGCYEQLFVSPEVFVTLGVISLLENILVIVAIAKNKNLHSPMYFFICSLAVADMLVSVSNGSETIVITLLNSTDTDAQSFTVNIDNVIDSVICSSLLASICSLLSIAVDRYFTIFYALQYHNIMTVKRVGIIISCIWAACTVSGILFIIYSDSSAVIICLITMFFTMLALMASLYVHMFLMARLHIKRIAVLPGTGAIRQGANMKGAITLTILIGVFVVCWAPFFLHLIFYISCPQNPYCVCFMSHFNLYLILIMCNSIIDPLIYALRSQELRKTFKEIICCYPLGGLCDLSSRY
Assay: not given
Assay type: cell membranes, Membrane
Conditions: hek293

Row | Structure (SMILES) | IC50
37 | Nc1nc(=O)[nH]cc1F [FLUCYTOSINE] | Not Active
38 | CNC(=O)Oc1ccc2c(c1)[C@]1(C)CCN(C)[C@@H]1N2C [PHYSOSTIGMINE] | Not Active
39 | Nc1nc2c(ncn2COC(CO)CO)c(=O)[nH]1 [GANCICLOVIR] | Not Active

Biological target: Tyrosine-protein kinase Fyn (Homo sapiens, UniProt P06241)
Sequence (P06241 whole entry): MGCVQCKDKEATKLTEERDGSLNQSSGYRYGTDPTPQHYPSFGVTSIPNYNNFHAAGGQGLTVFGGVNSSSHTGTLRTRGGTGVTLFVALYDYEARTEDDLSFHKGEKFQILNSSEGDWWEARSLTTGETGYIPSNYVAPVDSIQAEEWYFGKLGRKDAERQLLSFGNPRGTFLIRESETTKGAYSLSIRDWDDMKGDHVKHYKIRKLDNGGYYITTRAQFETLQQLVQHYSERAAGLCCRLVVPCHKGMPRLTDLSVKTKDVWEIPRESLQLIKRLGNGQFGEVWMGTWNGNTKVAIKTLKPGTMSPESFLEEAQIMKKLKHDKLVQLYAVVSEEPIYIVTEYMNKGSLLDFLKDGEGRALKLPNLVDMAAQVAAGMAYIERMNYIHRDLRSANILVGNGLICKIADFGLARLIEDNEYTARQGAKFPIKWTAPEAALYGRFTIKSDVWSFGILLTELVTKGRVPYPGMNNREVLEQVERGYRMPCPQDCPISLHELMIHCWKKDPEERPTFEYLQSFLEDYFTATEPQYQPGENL
Assay: biochemical
Assay type: cell-based, Insect cells
Conditions: insect cells

Row | Structure (SMILES) | IC50
40 | Nc1nc(=O)[nH]cc1F [FLUCYTOSINE] | Not Active
41 | CNC(=O)Oc1ccc2c(c1)[C@]1(C)CCN(C)[C@@H]1N2C [PHYSOSTIGMINE] | Not Active
42 | Nc1nc2c(ncn2COC(CO)CO)c(=O)[nH]1 [GANCICLOVIR] | Not Active

Biological target: Melanocortin receptor 5 (Homo sapiens, UniProt P33032); note: in other assays of this panel Not Active means under 50% inhibition at 10 µM
Sequence (P33032 whole entry): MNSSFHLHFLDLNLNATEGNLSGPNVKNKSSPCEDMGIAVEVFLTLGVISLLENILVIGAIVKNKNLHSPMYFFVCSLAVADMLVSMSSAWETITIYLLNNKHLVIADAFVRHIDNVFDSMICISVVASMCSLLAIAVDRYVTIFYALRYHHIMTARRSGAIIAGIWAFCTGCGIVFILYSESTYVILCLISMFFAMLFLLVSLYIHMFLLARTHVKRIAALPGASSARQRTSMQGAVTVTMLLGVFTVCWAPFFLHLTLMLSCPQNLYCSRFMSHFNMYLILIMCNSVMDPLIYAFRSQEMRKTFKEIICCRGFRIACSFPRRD
Assay: not given
Assay type: cell membranes, HEK293, Membrane
Conditions: hek293

Row | Structure (SMILES) | IC50
43 | Nc1nc(=O)[nH]cc1F [FLUCYTOSINE] | Not Active
44 | CNC(=O)Oc1ccc2c(c1)[C@]1(C)CCN(C)[C@@H]1N2C [PHYSOSTIGMINE] | Not Active
45 | Nc1nc2c(ncn2COC(CO)CO)c(=O)[nH]1 [GANCICLOVIR] | Not Active

Biological target: Mu-type opioid receptor (Homo sapiens, UniProt P35372)
Sequence (P35372 whole entry): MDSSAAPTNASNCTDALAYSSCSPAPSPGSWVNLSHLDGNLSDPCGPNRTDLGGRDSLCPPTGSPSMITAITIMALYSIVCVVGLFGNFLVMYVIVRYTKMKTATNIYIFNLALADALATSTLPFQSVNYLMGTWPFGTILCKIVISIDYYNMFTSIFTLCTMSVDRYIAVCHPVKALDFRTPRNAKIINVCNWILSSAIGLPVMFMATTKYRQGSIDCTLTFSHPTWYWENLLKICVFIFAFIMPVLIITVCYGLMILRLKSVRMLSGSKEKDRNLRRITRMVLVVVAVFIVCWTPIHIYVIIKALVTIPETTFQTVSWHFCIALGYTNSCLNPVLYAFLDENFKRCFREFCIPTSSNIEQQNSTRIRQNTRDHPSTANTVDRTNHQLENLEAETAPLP
Assay: DRUGMATRIX: Opiate mu (OP3, MOP) radioligand binding (ligand: [3H] Diprenorphine)
Assay type: cell membranes, CHO-K1, Membrane
Conditions: cho-k1; Not Active = under 50% inhibition at 10 µM

Row | Structure (SMILES) | IC50
46 | Nc1nc(=O)[nH]cc1F [FLUCYTOSINE] | Not Active
47 | CNC(=O)Oc1ccc2c(c1)[C@]1(C)CCN(C)[C@@H]1N2C [PHYSOSTIGMINE] | Not Active
48 | Nc1nc2c(ncn2COC(CO)CO)c(=O)[nH]1 [GANCICLOVIR] | Not Active
